Assays:
Test in all cases: Bliss interaction score (quartile over a dose matrix) (fitness difference); higher = more antagonism (negative = synergy)
S. aureus Newman = test system: S. aureus Newman
In short: (§1)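 Growth in each well was taken as OD595 at entry into stationary phase. Dividing by the plate's robust no-drug mean and capping at 1 gave fitness, and single-drug fitness was inferred from the combination data. The Bliss score, observed minus product-expected fitness, is summarised by quartiles over technical, biological and donor/recipient replicates.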

S. pneumoniae D39V = test system: S. pneumoniae D39V
In short: as §1

B. subtilis 168 = test system: B. subtilis 168
In short: as §1

S. aureus DSM 20231 = test system: S. aureus DSM 20231
In short: as §1
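Further: first quartile when negative (synergy) and third quartile when positive (antagonism).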

| SMILES | Bliss interaction score (S. aureus Newman) | Bliss interaction score (S. pneumoniae D39V) | Bliss interaction score (B. subtilis 168) | Bliss interaction score (S. aureus DSM 20231) | Bliss interaction score (S. aureus Newman; main component drawn) | Bliss interaction score (S. pneumoniae D39V; main component drawn) | Bliss interaction score (B. subtilis 168; main component drawn) | Bliss interaction score (S. aureus DSM 20231; main component drawn) |
| --- | --- | --- | --- | --- | --- | --- | --- | --- |
| CC(=O)O[C@H]1C[C@@]2(C)[C@@H](C[C@@H](O)[C@H]3[C@@]4(C)CC[C@@H](O)[C@@H](C)[C@@H]4CC[C@@]32C)/C1=C(\CCC=C(C)C)C(=O)O [Fusidic acid] + CO[C@H]1/C=C/O[C@@]2(C)Oc3c(C)c(O)c4c(O)c(c(/C=N/N5CCN(C)CC5)c(O)c4c3C2=O)NC(=O)/C(C)=C\C=C\[C@H](C)[C@H](O)[C@@H](C)[C@@H](O)[C@@H](C)[C@H](OC(C)=O)[C@@H]1C [Rifampicin] | 0.0314 | 0.0781 | 0.0723 | 0.0497 |  |  |  |  |
| N[C@@H]1CONC1=O [CycloserineD] + CO[C@@H]1[C@@H](OC(N)=O)[C@@H](O)[C@H](Oc2ccc3c(O)c(NC(=O)c4ccc(O)c(CC=C(C)C)c4)c(=O)oc3c2C)OC1(C)C [Novobiocin] | 0.0912 | 0.187 | 0.0651 | 0.0888 |  |  |  |  |
| CC(=O)OC[C@H]1O[C@@H]([S-])[C@H](OC(C)=O)[C@@H](OC(C)=O)[C@@H]1OC(C)=O.CCP(CC)CC.[Au+] [Auranofin] + C[C@H]1c2cccc(O)c2C(=O)C2=C(O)[C@]3(O)C(=O)C(C(N)=O)=C(O)[C@@H](N(C)C)[C@@H]3[C@@H](O)[C@@H]21 [Doxycycline] | 0.0622 | 0.052 | 0.0704 | -0.0178 |  |  |  |  |
| O=C(N[C@H](CO)[C@H](O)c1ccc([N+](=O)[O-])cc1)C(Cl)Cl [Chloramphenicol] + Clc1ccc(COC(Cn2ccnc2)c2ccc(Cl)cc2Cl)c(Cl)c1 [Miconazole] | 0.0868 | 0.0799 | 0.0615 | 0.0813 |  |  |  |  |
| CC(=O)OC[C@H]1O[C@@H]([S-])[C@H](OC(C)=O)[C@@H](OC(C)=O)[C@@H]1OC(C)=O.CCP(CC)CC.[Au+] [Auranofin] + CN(C)[C@@H]1C(O)=C(C(N)=O)C(=O)[C@@]2(O)C(O)=C3C(=O)c4c(O)ccc(Cl)c4[C@@](C)(O)[C@H]3C[C@@H]12 [Clortetracycline] | 0.0623 | 0.0541 | 0.0659 | 0.0317 |  |  |  |  |
| N[C@@H]1CONC1=O [CycloserineD] + CCCCCCCCCC(=O)N[C@@H]1[C@H]([C@@H]([C@H](O[C@H]1OC2=C3C=C4C=C2OC5=C(C=C(C=C5)[C@H]([C@H]6C(=O)N[C@@H](C7=C(C(=CC(=C7)O)OC8[C@H]([C@H]([C@@H]([C@H](O8)CO)O)O)O)C9=C(C=CC(=C9)[C@H](C(=O)N6)NC(=O)[C@@H]4NC(=O)[C@@H]1C2=CC(=CC(=C2)OC2=C(C=CC(=C2)[C@H](C(=O)N[C@H](CC2=CC(=C(O3)C=C2)Cl)C(=O)N1)N)O)O)O)C(=O)O)O[C@H]1[C@@H]([C@H]([C@@H]([C@H](O1)CO)O)O)NC(=O)C)Cl)CO)O)O [Teicoplanin] |  |  |  |  | 0.054 | -0.0849 | 0.0976 | 0.0399 |
| CC[C@H]1OC(=O)[C@H](C)[C@@H](O[C@H]2C[C@@](C)(OC)[C@@H](O)[C@H](C)O2)[C@H](C)[C@@H](O[C@@H]2O[C@H](C)C[C@H](N(C)C)[C@H]2O)[C@](C)(OC)C[C@@H](C)C(=O)[C@H](C)[C@@H](O)[C@]1(C)O [Clarithromycin] + CO[C@@]12[C@H](COC(N)=O)C3=C(C(=O)C(C)=C(N)C3=O)N1C[C@@H]1N[C@@H]12 [MitomycinC] | 0.0537 | -0.0527 | 0.036 | -0.0723 |  |  |  |  |
| CC(=O)OC[C@H]1O[C@@H]([S-])[C@H](OC(C)=O)[C@@H](OC(C)=O)[C@@H]1OC(C)=O.CCP(CC)CC.[Au+] [Auranofin] + O=C(N[C@H](CO)[C@H](O)c1ccc([N+](=O)[O-])cc1)C(Cl)Cl [Chloramphenicol] | 0.0594 | -0.0406 | 0.0717 | 0.0319 |  |  |  |  |
| CC[C@H]1OC(=O)[C@H](C)[C@@H](O[C@H]2C[C@@](C)(OC)[C@@H](O)[C@H](C)O2)[C@H](C)[C@@H](O[C@@H]2O[C@H](C)C[C@H](N(C)C)[C@H]2O)[C@](C)(OC)C[C@@H](C)C(=O)[C@H](C)[C@@H](O)[C@]1(C)O [Clarithromycin] + COc1cc(Cc2cnc(N)nc2N)cc(OC)c1OC [Trimethoprim] | 0.0667 | -0.0331 | -0.193 | 0.0723 |  |  |  |  |
| CC(=O)OC[C@H]1O[C@@H]([S-])[C@H](OC(C)=O)[C@@H](OC(C)=O)[C@@H]1OC(C)=O.CCP(CC)CC.[Au+] [Auranofin] + CC(=O)NC[C@H]1CN(c2ccc(N3CCOCC3)c(F)c2)C(=O)O1 [Linezolid] | 0.067 | -0.104 | -0.0379 | 0.0191 |  |  |  |  |
| CCCCCCCCCC(=O)N[C@H]1[C@H](Oc2c3cc4cc2Oc2ccc(cc2Cl)[C@@H](O[C@@H]2O[C@H](CO)[C@@H](O)[C@H](O)[C@H]2NC(C)=O)[C@@H]2NC(=O)[C@H](NC(=O)[C@@H]4NC(=O)[C@H]4NC(=O)[C@@H](Cc5ccc(c(Cl)c5)O3)NC(=O)[C@H](N)c3ccc(O)c(c3)Oc3cc(O)cc4c3)c3ccc(O)c(c3)-c3c(O[C@H]4O[C@H](CO)[C@@H](O)[C@H](O)[C@@H]4O)cc(O)cc3[C@@H](C(=O)O)NC2=O)O[C@H](CO)[C@@H](O)[C@@H]1O [Teicoplanin] + Oc1cc(Cl)ccc1Oc1ccc(Cl)cc1Cl [Triclosan] |  |  |  |  | -0.0356 | -0.106 | 0.0943 | 0.0695 |
| N[C@@H]1CONC1=O [CycloserineD] + CC(=O)NC[C@H]1CN(c2ccc(N3CCOCC3)c(F)c2)C(=O)O1 [Linezolid] | 0.06 | 0.146 | -0.0639 | -0.125 |  |  |  |  |
| CC(=O)O[C@H]1C[C@@]2(C)[C@@H](C[C@@H](O)[C@H]3[C@@]4(C)CC[C@@H](O)[C@@H](C)[C@@H]4CC[C@@]32C)/C1=C(\CCC=C(C)C)C(=O)O [Fusidic acid] + CCCCCCCCCC(=O)N[C@@H]1[C@H]([C@@H]([C@H](O[C@H]1OC2=C3C=C4C=C2OC5=C(C=C(C=C5)[C@H]([C@H]6C(=O)N[C@@H](C7=C(C(=CC(=C7)O)OC8[C@H]([C@H]([C@@H]([C@H](O8)CO)O)O)O)C9=C(C=CC(=C9)[C@H](C(=O)N6)NC(=O)[C@@H]4NC(=O)[C@@H]1C2=CC(=CC(=C2)OC2=C(C=CC(=C2)[C@H](C(=O)N[C@H](CC2=CC(=C(O3)C=C2)Cl)C(=O)N1)N)O)O)O)C(=O)O)O[C@H]1[C@@H]([C@H]([C@@H]([C@H](O1)CO)O)O)NC(=O)C)Cl)CO)O)O [Teicoplanin] |  |  |  |  | -0.0424 | 0.0761 | -0.0459 | 0.0374 |
| CC[C@H]1OC(=O)[C@H](C)[C@@H](O[C@H]2C[C@@](C)(OC)[C@@H](O)[C@H](C)O2)[C@H](C)[C@@H](O[C@@H]2O[C@H](C)C[C@H](N(C)C)[C@H]2O)[C@](C)(OC)C[C@@H](C)C(=O)[C@H](C)[C@@H](O)[C@]1(C)O [Clarithromycin] + O=C(O)[C@H]1/C(=C/CO)O[C@@H]2CC(=O)N21 [Clavulanic] | 0.277 | -0.059 | 0.047 | -0.212 |  |  |  |  |
| CC(=O)OC[C@H]1O[C@@H]([S-])[C@H](OC(C)=O)[C@@H](OC(C)=O)[C@@H]1OC(C)=O.CCP(CC)CC.[Au+] [Auranofin] + CN(C)C(=O)C(CCN1CCC(O)(c2ccc(Cl)cc2)CC1)(c1ccccc1)c1ccccc1 [Loperamide] | 0.113 | 0.116 | 0.0417 | 0.0252 |  |  |  |  |
| COc1c(N2C[C@@H]3CCCN[C@@H]3C2)c(F)cc2c(=O)c(C(=O)O)cn(C3CC3)c12 [Moxifloxacin] + CC1(C)S[C@@H]2[C@H](NC(=O)Cc3ccccc3)C(=O)N2[C@H]1C(=O)O [PenicillinG] | -0.0783 | 0.0895 | 0.0377 | 0.0629 |  |  |  |  |
| N[C@@H]1CONC1=O [CycloserineD] + CN[C@@H]1[C@H](O)[C@H](NC)[C@H]2O[C@@]3(O)C(=O)C[C@@H](C)O[C@H]3O[C@@H]2[C@H]1O [Spectinomycin] | 0.0506 | 0.11 | -0.034 | 0.0625 |  |  |  |  |
| O=C(N[C@H](CO)[C@H](O)c1ccc([N+](=O)[O-])cc1)C(Cl)Cl [Chloramphenicol] + CC[C@H]1OC(=O)[C@H](C)[C@@H](O[C@H]2C[C@@](C)(OC)[C@@H](O)[C@H](C)O2)[C@H](C)[C@@H](O[C@@H]2O[C@H](C)C[C@H](N(C)C)[C@H]2O)[C@](C)(O)C[C@@H](C)C(=O)[C@H](C)[C@@H](O)[C@]1(C)O [Erythromycin] | -0.103 | 0.0269 | 0.0488 | 0.0318 |  |  |  |  |
| O=C(N[C@H](CO)[C@H](O)c1ccc([N+](=O)[O-])cc1)C(Cl)Cl [Chloramphenicol] + CO[C@@]12[C@H](COC(N)=O)C3=C(C(=O)C(C)=C(N)C3=O)N1C[C@@H]1N[C@@H]12 [MitomycinC] | 0.102 | -0.0831 | 0.114 | -0.0503 |  |  |  |  |
| CC[C@H]1OC(=O)[C@H](C)[C@@H](O[C@H]2C[C@@](C)(OC)[C@@H](O)[C@H](C)O2)[C@H](C)[C@@H](O[C@@H]2O[C@H](C)C[C@H](N(C)C)[C@H]2O)[C@](C)(OC)C[C@@H](C)C(=O)[C@H](C)[C@@H](O)[C@]1(C)O [Clarithromycin] + CC1(C)S[C@@H]2[C@H](NC(=O)Cc3ccccc3)C(=O)N2[C@H]1C(=O)O [PenicillinG] | -0.0938 | -0.0413 | 0.0431 | -0.0458 |  |  |  |  |
| CC(=O)O[C@H]1C[C@@]2(C)[C@@H](C[C@@H](O)[C@H]3[C@@]4(C)CC[C@@H](O)[C@@H](C)[C@@H]4CC[C@@]32C)/C1=C(\CCC=C(C)C)C(=O)O [Fusidic acid] + CCN(CC)CCOC(=O)c1ccc(N)cc1 [Procaine] | -0.0177 | 0.0981 | -0.0381 | -0.0218 |  |  |  |  |
| N[C@@H]1CONC1=O [CycloserineD] + C/C(=C\C(=O)OCCCCCCCCC(=O)O)C[C@@H]1OC[C@H](C[C@@H]2O[C@H]2[C@@H](C)[C@H](C)O)[C@@H](O)[C@H]1O [Pseudomonic acid] | -0.0141 | 0.136 | -0.0491 | 0.009 |  |  |  |  |
| N[C@@H]1CONC1=O [CycloserineD] + CC(C1CCC(C(O1)OC2C(CC(C(C2O)OC3C(C(C(CO3)(C)O)NC)O)N)N)N)NC [Gentamicin] |  |  |  |  | 0.0356 | -0.0744 | -0.0482 | -0.125 |
| O=C1CN(/N=C/c2ccc([N+](=O)[O-])o2)C(=O)N1 [Nitrofurantoin] + C/C(=C\C(=O)OCCCCCCCCC(=O)O)C[C@@H]1OC[C@H](C[C@@H]2O[C@H]2[C@@H](C)[C@H](C)O)[C@@H](O)[C@H]1O [Pseudomonic acid] | -0.0266 | 0.0739 | 0.127 | -0.0197 |  |  |  |  |
| CC(=O)OC[C@H]1O[C@@H]([S-])[C@H](OC(C)=O)[C@@H](OC(C)=O)[C@@H]1OC(C)=O.CCP(CC)CC.[Au+] [Auranofin] + CC(=O)O[C@H]1C[C@@]2(C)[C@@H](C[C@@H](O)[C@H]3[C@@]4(C)CC[C@@H](O)[C@@H](C)[C@@H]4CC[C@@]32C)/C1=C(\CCC=C(C)C)C(=O)O [Fusidic acid] | 0.0311 | -0.0761 | 0.0389 | 0.019 |  |  |  |  |
| CC(=O)OC[C@H]1O[C@@H]([S-])[C@H](OC(C)=O)[C@@H](OC(C)=O)[C@@H]1OC(C)=O.CCP(CC)CC.[Au+] [Auranofin] + CC1=C(C(=O)O)N2C(=O)[C@@H](NC(=O)[C@H](N)c3ccccc3)[C@H]2SC1 [Cephalexin] | -0.0291 | -0.101 | -0.0587 | -0.0272 |  |  |  |  |
| CC[C@H]1OC(=O)[C@H](C)[C@@H](O[C@H]2C[C@@](C)(OC)[C@@H](O)[C@H](C)O2)[C@H](C)[C@@H](O[C@@H]2O[C@H](C)C[C@H](N(C)C)[C@H]2O)[C@](C)(OC)C[C@@H](C)C(=O)[C@H](C)[C@@H](O)[C@]1(C)O [Clarithromycin] + CCC[C@@H]1C[C@@H](C(=O)N[C@@H]([C@H]2O[C@H](SC)[C@H](O)[C@@H](O)[C@H]2O)[C@H](C)Cl)N(C)C1 [Clindamycin] | -0.066 | 0.0678 | 0.0458 | -0.0458 |  |  |  |  |
